The target in one test is T1, α3β4 nACh receptors (Rattus norvegicus, UniProt P04757+P12392).
T1 construct: expressed in transfected cells; host or cells: HEK293 (ATCC CRL1573), transient transfection
In words: whole-cell patch-clamp of transfected HEK293 cells, ganglionic α3β4 nACh receptors, 1 mM ACh. It is filed as cell-based. Here is the method: Human embryonic kidney 293 (HEK293) fibroblasts (ATCC CRL1573) were cultured in minimal essential medium supplemented with 10% fetal bovine serum and 2 mM glutamine (Life Technologies, Rockville, Md.). Cells were plated on poly-D-lysine-coated 35 mm nunc dishes, transfected by the LipofectaminePLUS method (Life Technologies), and examined functionally between 18-48 h post transfection. The following receptor subunit cDNAs were used: nAChR-α3 (nicotinic acetylcholine receptor-α3; accession no. L31621), nAChR-α4 (accession no. L31620), nAChR-β2 (accession no. L31622), nAChR-β4 (accession no. U42976), 5-HT3R-A (5-HT3A receptor; accession no. M74425), NR1 (N-methyl-D-aspartate receptor 1; accession no. X63255), NR2A (accession no. X91561), and NR2B (accession no. M91562). The nAchR and NR clones were rat; the 5-HT3R-A clone was mouse. Co-transfection of enhanced green fluorescent protein (“EGFP”) (10% of total cDNA) provided a marker to identify transfected cells. Transfected cells were selected for EGFP expression and examined by voltage-clamp recording in the whole-cell configuration using an Axopatch 200B patch-clamp amplifier (Axon Instruments, Foster City, Calif.). Thin-walled borosilicate glass microelectrodes (TW150F, World Precision Instruments, Sarasota, Fla.) had resistances of 3-5 MΩ when filled with an internal solution containing (in mM): 135 CsCl, 10 CsF, 10 HEPES (N-[2-hydroxyethyl]piperazine-N′-[2-ethanesulfonic acid]), 5 EGTA (ethylene glycol-bis[β-aminoethyl ether]-N,N,N′,N′-tetraacetic acid), 1 MgCl2, 0.5 CaCl2, pH 7.2. Whole-cell capacitance and series resistance were recorded and adequately compensated using the available circuitry of the amplifier. Current responses were filtered at 1 kHz with an 8-pole Bessel filter (Cygnus Technologies, Delaware Water Gap, Pa.), digitized at 3 kHz, and stored on a Macintosh PowerPC-G3 computer using an ITC-16 interface (Instrutech, Great Neck, N.Y.) under control of the data acquisition and analysis program Synapse (Synergy Research, Gaithersburg, Md.). […] Rapid switching between inputs was achieved using a set of upstream solenoid valves (Lee Co., Westbrook, Conn.) under computer control; the solution exchange rate was ˜5 ms as measured from liquid junction currents.
Transfected HEK293 cells expressing various receptor subunit cDNAs were examined by whole-cell patch-clamp recording with fast perfusion of agonist and drug solutions. […] In FIG. 1A, open bars depict the timing of ACh application; filled bars depict the timing of co-application of 20 μM IBO or 20 μM 18MC; and inhibition was measured relative to control at the end of the drug application (indicated by arrows). […]
On the technique in general: The patch-clamp technique gives a direct electrical read-out from membranes.

Another test concerns the target T2, NR1/2B receptors (Rattus norvegicus, UniProt P35439+Q00960).
T2 construct: expressed in transfected cells; host or cells: HEK293 (ATCC CRL1573), transient transfection
Nature of the test: whole-cell patch-clamp of transfected HEK293 cells, NR1/2B, 100 μM glutamate plus 10 μM glycine. The class given is cell-based. The procedure: (§1) Human embryonic kidney 293 (HEK293) fibroblasts (ATCC CRL1573) were cultured in minimal essential medium supplemented with 10% fetal bovine serum and 2 mM glutamine (Life Technologies, Rockville, Md.). Cells were plated on poly-D-lysine-coated 35 mm nunc dishes, transfected by the LipofectaminePLUS method (Life Technologies), and examined functionally between 18-48 h post transfection. The following receptor subunit cDNAs were used: nAChR-α3 (nicotinic acetylcholine receptor-α3; accession no. L31621), nAChR-α4 (accession no. L31620), nAChR-β2 (accession no. L31622), nAChR-β4 (accession no. U42976), 5-HT3R-A (5-HT3A receptor; accession no. M74425), NR1 (N-methyl-D-aspartate receptor 1; accession no. X63255), NR2A (accession no. X91561), and NR2B (accession no. M91562). The nAchR and NR clones were rat; the 5-HT3R-A clone was mouse. Co-transfection of enhanced green fluorescent protein (“EGFP”) (10% of total cDNA) provided a marker to identify transfected cells. Transfected cells were selected for EGFP expression and examined by voltage-clamp recording in the whole-cell configuration using an Axopatch 200B patch-clamp amplifier (Axon Instruments, Foster City, Calif.). Thin-walled borosilicate glass microelectrodes (TW150F, World Precision Instruments, Sarasota, Fla.) had resistances of 3-5 MΩ when filled with an internal solution containing (in mM): 135 CsCl, 10 CsF, 10 HEPES (N-[2-hydroxyethyl]piperazine-N′-[2-ethanesulfonic acid]), 5 EGTA (ethylene glycol-bis[β-aminoethyl ether]-N,N,N′,N′-tetraacetic acid), 1 MgCl2, 0.5 CaCl2, pH 7.2. Whole-cell capacitance and series resistance were recorded and adequately compensated using the available circuitry of the amplifier. Current responses were filtered at 1 kHz with an 8-pole Bessel filter (Cygnus Technologies, Delaware Water Gap, Pa.), digitized at 3 kHz, and stored on a Macintosh PowerPC-G3 computer using an ITC-16 interface (Instrutech, Great Neck, N.Y.) under control of the data acquisition and analysis program Synapse (Synergy Research, Gaithersburg, Md.). Cells were continuously superfused with extracellular solution containing (in mM): 150 NaCl, 3 KCl, 5 HEPES, 1 MgCl2, 1.8 CaCl2, 10 glucose, and 0.1 mg/ml phenol red, pH 7.3 (MgCl2 was omitted from all solutions used for the study of NMDA receptors). […] Control, agonist, and drug solutions were applied to individual cells by rapid perfusion. Solutions were driven by a syringe pump through a flowpipe having 4 inputs that converge at a single common output of approximately 100 μm diameter. Rapid switching between inputs was achieved using a set of upstream solenoid valves (Lee Co., Westbrook, Conn.) under computer control; the solution exchange rate was ˜5 ms as measured from liquid junction currents.
To study these, transfected HEK293 cells expressing NR1/2A or NR1/2B receptors were voltage-clamped to −70 mV and stimulated with 100 μM glutamate plus 10 μM glycine at 30 s intervals. […] In FIGS. 3A and 3B, open bars depict the timing of agonist application, filled bars depict the timing of co-application of 20 μM IBO or 20 μM 18MC, and inhibition was measured relative to control at the end of the drug application (indicated by arrows).

Another test concerns the target T3, 5-HT3A receptors (Mus musculus, UniProt P23979).
T3 construct: expressed in transfected cells; host or cells: HEK293 (ATCC CRL1573), transient transfection
T3 sequence (P23979 24-489): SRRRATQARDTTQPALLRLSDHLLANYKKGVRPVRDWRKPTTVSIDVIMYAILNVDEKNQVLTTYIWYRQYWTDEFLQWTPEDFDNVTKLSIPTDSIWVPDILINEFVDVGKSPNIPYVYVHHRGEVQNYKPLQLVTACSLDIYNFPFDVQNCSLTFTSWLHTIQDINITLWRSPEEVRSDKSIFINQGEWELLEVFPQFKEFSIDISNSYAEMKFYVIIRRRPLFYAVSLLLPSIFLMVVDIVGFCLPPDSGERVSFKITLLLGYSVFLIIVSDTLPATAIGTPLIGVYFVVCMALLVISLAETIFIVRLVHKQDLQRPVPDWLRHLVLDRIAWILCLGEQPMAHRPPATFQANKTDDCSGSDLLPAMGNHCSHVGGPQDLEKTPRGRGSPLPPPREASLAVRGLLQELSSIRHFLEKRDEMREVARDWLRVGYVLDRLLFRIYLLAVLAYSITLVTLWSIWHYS
In words: whole-cell patch-clamp of transfected HEK293 cells, 5-HT3A, 100 μM serotonin. The class given is cell-based. The procedure:
as §1
Transfected HEK293 cells expressing 5-HT3A receptors were voltage-clamped to −70 mV and stimulated with 100 μM serotonin at 30 s intervals. […] This is shown in FIG. 4, where open bars depict the timing of agonist application, filled bars depict the timing of co-application of 20 μM IBO or 20 μM 18MC, and inhibition was measured relative to control at the end of the drug application (indicated by arrows).

The test system of test [1] is methamphetamine self-administration. Nature of the test: intravenous methamphetamine self-administration. It is filed as in vivo, rat.
Test [2] relates to nicotine self-administration. In words: nicotine self-administration. The class given is in vivo, rat. The note with it: Example 7, FIGS. 11-12: mecamylamine 0.1 mg/kg i.p., 18-methoxycoronaridine 0.5 mg/kg i.p., dextromethorphan 0.5 mg/kg s.c., bupropion 5 mg/kg i.p.; 5-8 rats.

T2 sequence (Q00960 27-1482, other chains not shown): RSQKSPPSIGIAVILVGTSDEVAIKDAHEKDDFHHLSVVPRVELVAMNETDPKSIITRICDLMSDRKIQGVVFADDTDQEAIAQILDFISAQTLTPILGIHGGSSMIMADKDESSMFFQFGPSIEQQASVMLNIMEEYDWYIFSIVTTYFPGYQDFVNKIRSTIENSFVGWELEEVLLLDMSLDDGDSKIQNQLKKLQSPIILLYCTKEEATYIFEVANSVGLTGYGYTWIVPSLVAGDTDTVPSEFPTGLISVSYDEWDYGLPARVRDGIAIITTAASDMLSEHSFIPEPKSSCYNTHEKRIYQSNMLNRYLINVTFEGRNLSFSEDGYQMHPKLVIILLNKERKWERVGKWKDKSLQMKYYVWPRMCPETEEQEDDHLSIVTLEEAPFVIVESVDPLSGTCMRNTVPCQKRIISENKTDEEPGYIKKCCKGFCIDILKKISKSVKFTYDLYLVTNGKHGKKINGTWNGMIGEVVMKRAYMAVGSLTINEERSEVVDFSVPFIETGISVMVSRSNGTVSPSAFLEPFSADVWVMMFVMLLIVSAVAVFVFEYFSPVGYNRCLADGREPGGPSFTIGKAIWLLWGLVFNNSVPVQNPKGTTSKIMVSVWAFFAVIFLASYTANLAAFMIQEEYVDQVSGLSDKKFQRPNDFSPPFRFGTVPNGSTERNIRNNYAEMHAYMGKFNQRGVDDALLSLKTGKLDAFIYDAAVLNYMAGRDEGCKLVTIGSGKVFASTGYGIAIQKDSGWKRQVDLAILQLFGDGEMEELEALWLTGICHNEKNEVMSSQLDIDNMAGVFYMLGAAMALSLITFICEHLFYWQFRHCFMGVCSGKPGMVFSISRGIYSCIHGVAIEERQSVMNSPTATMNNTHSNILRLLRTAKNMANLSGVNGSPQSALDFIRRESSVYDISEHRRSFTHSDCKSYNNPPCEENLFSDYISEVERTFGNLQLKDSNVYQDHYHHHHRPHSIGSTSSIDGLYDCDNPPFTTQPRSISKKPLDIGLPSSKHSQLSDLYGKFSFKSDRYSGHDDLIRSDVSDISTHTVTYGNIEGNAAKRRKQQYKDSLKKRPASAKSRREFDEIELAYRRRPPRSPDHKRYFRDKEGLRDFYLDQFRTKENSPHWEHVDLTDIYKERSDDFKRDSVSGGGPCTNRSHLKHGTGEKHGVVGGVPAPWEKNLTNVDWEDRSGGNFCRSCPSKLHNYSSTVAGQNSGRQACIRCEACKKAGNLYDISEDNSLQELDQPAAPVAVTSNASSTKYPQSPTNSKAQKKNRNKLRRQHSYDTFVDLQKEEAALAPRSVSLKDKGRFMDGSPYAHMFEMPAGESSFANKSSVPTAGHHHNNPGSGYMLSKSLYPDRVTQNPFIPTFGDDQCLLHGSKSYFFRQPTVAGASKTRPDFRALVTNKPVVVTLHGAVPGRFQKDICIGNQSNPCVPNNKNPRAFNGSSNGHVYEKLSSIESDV
T1 sequence (P04757 26-499): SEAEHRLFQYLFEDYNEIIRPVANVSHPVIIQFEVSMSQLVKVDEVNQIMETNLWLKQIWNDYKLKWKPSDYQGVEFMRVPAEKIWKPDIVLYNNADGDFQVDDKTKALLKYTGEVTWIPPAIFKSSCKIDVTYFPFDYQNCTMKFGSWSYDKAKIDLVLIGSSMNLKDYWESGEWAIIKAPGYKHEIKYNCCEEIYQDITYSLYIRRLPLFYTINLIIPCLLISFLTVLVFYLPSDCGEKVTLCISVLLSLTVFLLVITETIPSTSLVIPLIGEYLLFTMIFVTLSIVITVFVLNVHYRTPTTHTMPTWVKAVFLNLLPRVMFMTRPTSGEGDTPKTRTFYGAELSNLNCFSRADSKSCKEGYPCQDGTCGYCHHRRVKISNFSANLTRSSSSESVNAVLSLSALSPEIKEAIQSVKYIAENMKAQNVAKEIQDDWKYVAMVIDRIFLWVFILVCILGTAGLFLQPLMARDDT
T1 sequence (P12392 21-495): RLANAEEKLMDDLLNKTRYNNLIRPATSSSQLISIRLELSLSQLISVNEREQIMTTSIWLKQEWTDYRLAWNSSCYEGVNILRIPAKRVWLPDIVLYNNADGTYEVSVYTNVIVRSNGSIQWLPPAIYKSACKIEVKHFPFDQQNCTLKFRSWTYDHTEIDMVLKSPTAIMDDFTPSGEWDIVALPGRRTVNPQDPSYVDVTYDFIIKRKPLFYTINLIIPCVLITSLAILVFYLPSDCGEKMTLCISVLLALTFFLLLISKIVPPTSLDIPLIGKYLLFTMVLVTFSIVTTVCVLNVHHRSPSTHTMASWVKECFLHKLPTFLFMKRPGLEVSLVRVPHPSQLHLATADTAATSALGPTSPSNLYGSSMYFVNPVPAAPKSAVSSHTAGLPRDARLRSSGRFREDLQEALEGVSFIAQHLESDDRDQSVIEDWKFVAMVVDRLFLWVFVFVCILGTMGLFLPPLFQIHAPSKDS

Take `COCC[C@H]1CC2CN3CCc4c([nH]c5ccccc45)[C@](C(=O)OC)(C2)[C@H]13` [18-methoxycoronaridine]: the “response to drug applied alone (agonist activity)” value at α3β4 nACh receptors (20 μM drug alone, -70 mV) is listed as “did not produce any response”; on NR1/2B receptors (20 μM drug alone), “did not produce any response”; at 5-HT3A receptors (20 μM drug alone), “did not produce any response”. In addition, the “inhibition of ACh-evoked responses on co-application” value at α3β4 nACh receptors (20 μM drug with 1 mM ACh, N=15, FIG. 1A) was “nearly abolished”. Also, the “inhibition of agonist-evoked response” value on NR1/2B receptors (concentrations up to 20 μM, N=5, FIG. 3B) is reported as “failed to inhibit”. Also, the “inhibition of serotonin-evoked responses” value at 5-HT3A receptors (20 μM drug with 100 μM serotonin, FIG. 4) is 50±3%. The IC50 (as a rule, the concentration at which inhibition is half-maximal) on 5-HT3A receptors (approximate, from 20 μM data, read-out: IC50 at 5-HT3 receptors) is about 20 µM. The “effect on methamphetamine self-administration (percent of baseline)” value is recorded as “none of the drugs administered alone, significantly decreased” in test [1] (Example 5, FIG. 6: mecamylamine 1 mg/kg i.p., 18-methoxycoronaridine 2 mg/kg i.p., dextromethorphan 5 mg/kg s.c., 6-7 rats) and “none of the drugs administered alone, significantly decreased” in test [1] (Example 6, FIG. 9: mecamylamine 1 mg/kg i.p., 18-methoxycoronaridine 5 mg/kg i.p., dextromethorphan 10 mg/kg s.c., bupropion 10 mg/kg i.p., 5-9 rats). Also, the “effect on nicotine self-administration (percent of baseline)” value in test [2] was “none of the drugs administered alone, significantly decreased”.

These data come from patent publication US6780871B2, “Methods and compositions for treating addiction disorders” (Albany Medical College, priority 2001, dated 2004).
